The text below walks through data of patent US20140135359A1, “METHODS OF DESIGNING, PREPARING, AND USING NOVEL PROTONOPHORES” (priority 2012, published 2014).

For this assay, the system named is glucose-6-phosphatase (G6Pase) activity in H4IIE hepatocytes. The assay is described as follows: Glucose-6-phosphatase activity in H4IIE hepatocytes. The format is cell-based, murine. The conditions noted are these: 25 μM, 16 h. As to the method: 2.4 Glucose-6-phosphatase activity in H4IIE hepatocytes: H4IIE murine hepatocytes (American Type Culture Collection) were cultured to confluence in 12-well plates in DMEM supplemented with 10% FBS and antibiotics. […] Effects of test compounds on cellular viability were assessed by measuring the release of lactate dehydrogenase (LDH) into the culture medium at the end of a 16 h treatment using a commercial kit (Cytotoxicity Detection Kit; Roche Diagnostics; Laval, QC) as per the manufacturer's instructions; LDH release was expressed as % of total (medium+lysate) LDH content for each well. Cells were also routinely inspected for abnormal morphology by phase-contrast microscopy at the conclusion of the treatment period. Following treatment, cells were washed in HEPES-buffered saline (10 mM HEPES, pH 7.4, 150 mM NaCl) at 37° C. Glucose-6-phosphatase (G6Pase) activity was assessed by measuring the rate of glucose formation in the presence of a non-limiting amount of glucose-6-phosphate (G6P), as done by others [39B, 40B]. Glucose production was measured with a commercial glucose assay kit (AutoKit Glucose; Wako Diagnostics; Richmond, Va.). Two hundred μl of AutoKit Glucose buffer solution diluted 1:4 in water were added to each well. Cells were then lysed by the addition of 50 μl of 0.05% Triton X-100 in similarly diluted AutoKit Glucose buffer solution. […] At 37° C., after which time 500 μl of AutoKit Glucose color reagent were added and incubation was continued for exactly 5 min. Samples were then rapidly transferred to microcentrifuge tubes. Fifty μl were removed for assay of total protein content in order to account for effects of test compounds on cellular viability or proliferation [41B]. A commercial protein assay kit based on the Bradford method was used (Protein Assay; Bio-Rad Laboratories; Hercules, Calif.). […] The remaining volume was centrifuged at 3000×g for 5 min. Absorbance of the supernatant was measured at 505 nm at ambient temperature and glucose concentration was calculated from a standard curve performed in parallel. Control wells without exogenous G6P were included on each plate for each treatment condition and activity measured from these wells was subtracted from activity measured in the presence of exogenous G6P. G6Pase activity calculated in this way was then expressed normalized to protein content on a well-by-well basis. Two independent experiments in cells of different passages were performed for each of the selected test compounds, with four to six replicates per condition per experiment.
Protocol for assay of glucose-6-phosphatase activity in H4IIE or other hepatocytes: H4IIE murine hepatocytes (American Type Culture Collection) may be cultured to confluence in 12-well plates in Dulbecco's modified Eagle's medium (DMEM) supplemented with 10% fetal bovine serum (FBS), and antibiotics. […] Effects of test compounds on cellular viability may be assessed by measuring the release of lactate dehydrogenase (LDH) into the culture medium at the end of a 16 hour treatment using a commercial kit (e.g., Cytotoxicity Detection Kit; Roche Diagnostics; Laval, QC) as per the manufacturer's instructions; LDH release may be expressed as % of total (i.e., medium+lysate) LDH content for each well. Cells may also be routinely inspected for abnormal morphology by phase-contrast microscopy at the conclusion of the treatment period. Following treatment, cells may be washed in HEPES-buffered saline (10 mM HEPES, pH 7.4, 150 mM NaCl) at 37° C. Glucose-6-phosphatase (G6Pase) activity may be assessed by measuring the rate of glucose formation in the presence of a non-limiting amount of glucose-6-phosphate (G6P). Glucose production may be measured with a commercial glucose assay kit (e.g., AutoKit Glucose; Wako Diagnostics; Richmond, Va.). Two hundred μl of AutoKit Glucose buffer solution diluted 1:4 in water may be added to each well.

Structures are written as SMILES.

Regarding `O=[N+]([O-])c1ccc(O)c([N+](=O)[O-])c1` [2,4-dinitrophenol], the “suppression of G6Pase activity per mg total protein” value is 39%.
